The record followed here is ChEMBL document CHEMBL1132665, “Casein kinase II inhibitors isolated from two Brazilian plants Hymenaea parvifolia and Wulffia baccata” (Bioorg Med Chem Lett, 1999).

Assay [1] deals with T1, Casein kinase II (Homo sapiens) (UniProt P67870+P68400+P19784). Description: Inhibition of CK-II-mediated 60S acidic ribosomal P protein activity at 10 uM. The format is functional.
Assay [2] deals with T1, Casein kinase II (Homo sapiens). The experiment in a line: In vitro inhibitory activity against casein kinase II was determined. The format is protein-complex assay.

Turning to `C[C@@H]1CC[C@]2(C(=O)O)CC[C@]3(C)C(=CC[C@@H]4[C@]56CC[C@@](O)(OC5)C(C)(C)[C@@H]6CC[C@]43C)C2[C@H]1C` (stereo partly specified), the Activity entry in assay [1] was “Dose-dependent effect”.

As for `C[C@H]1OC(O[C@H]2C(=O)c3c(O)cc(O)cc3O[C@@H]2c2ccc(O)c(O)c2)[C@H](O)[C@H](O)[C@@H]1O` (stereo partly specified), in assay [2], the ID50 was 9 µM. Besides, in assay [1], the Activity result was “Dose-dependent effect”.

Compound `C[C@H]1OC(O[C@@H]2C(=O)c3c(O)cc(O)cc3O[C@H]2c2ccc(O)c(O)c2)[C@H](O)[C@H](O)[C@@H]1O` (stereo partly specified) gave an ID50 in assay [2] of 7 µM. Also, in assay [1], the Activity entry was “Dose-dependent effect”.

`C/C=C(/C)C(=O)O[C@@H]1CC(C)(C)CC2C3=CC[C@@H]4[C@]56CC[C@@](O)(OC5)C(C)(C)[C@@H]6CC[C@@]4(C)[C@]3(C)CC[C@]21C(=O)O` (stereo partly specified): in assay [1], the Activity result was “Dose-dependent effect”.
